Data reported in PubChem BioAssay (NCI).
Values joined by “and” are separate entries in the source; they are usually repeats but may differ in a detail not shown here. Identical values can stand only once.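 Compound exposure: 48 hours, 5 concentrations, 96-well plates. At the GI50, growth is halved. At the TGI there is no net growth.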

What was measured:
Assay in all cases: growth of human tumour cells (NCI), 48 h
A549 NSCLC = tested on: A549 NSCLC
HOP-62 NSCLC = tested on: HOP-62 NSCLC
HCT-15 colon = tested on: HCT-15 colon
UO-31 renal = tested on: UO-31 renal
HOP-18 NSCLC = tested on: HOP-18 NSCLC
SNB-78 CNS = tested on: SNB-78 CNS
NCI-H460 lung = tested on: NCI-H460 lung
DMS 114 small cell lung = tested on: DMS 114 small cell lung
SK-MEL-5 melanoma = tested on: SK-MEL-5 melanoma
KM20L2 colon = tested on: KM20L2 colon
U251 CNS = tested on: U251 CNS
HCT-116 colon = tested on: HCT-116 colon
OVCAR-4 ovarian = tested on: OVCAR-4 ovarian
RXF 393 renal = tested on: RXF 393 renal
LXFL 529 NSCLC = tested on: LXFL 529 NSCLC

Row | Compound | TGI (A549 NSCLC) | TGI (HOP-62 NSCLC) | TGI (HCT-15 colon) | TGI (UO-31 renal) | TGI (HOP-18 NSCLC) | TGI (SNB-78 CNS) | TGI (NCI-H460 lung) | TGI (DMS 114 small cell lung) | TGI (SK-MEL-5 melanoma) | TGI (KM20L2 colon) | TGI (U251 CNS) | TGI (HCT-116 colon) | TGI (OVCAR-4 ovarian) | TGI (RXF 393 renal) | TGI (LXFL 529 NSCLC) | GI50 (RXF 393 renal) | GI50 (HOP-62 NSCLC) | GI50 (NCI-H460 lung) | GI50 (OVCAR-4 ovarian)
1 | COc1ccc(OCC(C)(C)O)cc1 | > 100 µM | > 100 µM | > 100 µM | > 100 µM | > 100 µM | > 100 µM | > 100 µM | > 100 µM | > 100 µM | > 100 µM | > 100 µM | > 100 µM | > 100 µM | > 100 µM |  |  |  |  | 
2 | CC(c1ccccc1)C(O)S(=O)(=O)O (centres undefined) | > 100 µM |  | > 100 µM | > 100 µM | > 100 µM | > 100 µM | > 100 µM | > 100 µM |  | > 100 µM | > 100 µM | > 100 µM | > 100 µM | > 100 µM | > 100 µM |  |  |  | 
3 | O=C1CSC(c2cccc(Oc3ccccc3)c2)N1c1cccc(Cl)c1Cl (centres undefined) | > 100 µM | > 100 µM | 46.8 µM | > 100 µM |  |  | 71.5 µM |  | 50 µM |  | 39.1 µM | 38.5 µM | > 100 µM | > 100 µM |  |  |  |  | 
4 | COc1c2occc2cc2ccc(=O)oc12 | > 100 µM | > 100 µM | > 100 µM | > 100 µM |  |  | > 100 µM |  | > 100 µM |  | > 100 µM | > 100 µM | > 100 µM | > 100 µM |  | > 100 µM |  |  | 
5 | Cc1c(C#N)c(N)n(C2OC(CO)C(O)C(O)C2O)c(=S)c1C#N (centres undefined) | > 100 µM | > 100 µM | > 100 µM | > 100 µM |  |  | > 100 µM |  | > 100 µM |  | > 100 µM | > 100 µM | > 100 µM | > 100 µM |  |  |  |  | 
6 | COc1ccc2c(c1)C=C(C(C)(C)C)NS2(=O)=O | > 100 µM | > 100 µM | > 100 µM | > 100 µM | > 100 µM | > 100 µM | > 100 µM | > 100 µM | > 100 µM | > 100 µM | > 100 µM | > 100 µM | > 100 µM | > 100 µM | > 100 µM |  |  |  | 
7 | Cc1nn(C(=O)c2ccncc2)c2c1C(c1ccc([N+](=O)[O-])cc1)SC(N)=N2 (centres undefined) | > 100 µM | > 100 µM | > 100 µM | > 100 µM |  |  | > 100 µM |  | > 100 µM |  | > 100 µM | > 100 µM | > 100 µM | > 100 µM |  |  |  |  | 
8 | O=C1c2cc([N+](=O)[O-])sc2C(=O)c2cc([N+](=O)[O-])sc21 | 49.6 µM | 15.3 µM | 3.55 µM | 7.68 µM |  |  | 43.8 µM |  | 7.21 µM |  | 3.38 µM | 3.24 µM | 8.71 µM | 15.5 µM |  |  |  |  | 
9 | NS(=O)(=O)c1nnc(NC(=O)/C=C/C(=O)O)s1 | > 100 µM | > 100 µM | > 100 µM | > 100 µM |  |  | > 100 µM |  | > 100 µM |  | > 100 µM | > 100 µM | > 100 µM | > 100 µM |  |  |  |  | 
10 | COC(=O)C1(Cc2ccc(C)cc2)Cc2c(C)cccc2C1=O (centres undefined) | 54.5 µM | 65.5 µM | 75.9 µM | > 100 µM |  |  | 39.2 µM |  | 26.3 µM |  | 66.5 µM | 31.9 µM | 98.9 µM | 40.5 µM |  |  |  |  | 
11 | CC(C)(C)C(=O)CC(=O)C(F)(F)C(F)(F)C(F)(F)F.[Ag] | > 100 µM | 50.9 µM | 31.3 µM | 60.4 µM |  |  | 46.9 µM |  | 21.3 µM |  | 52.8 µM | 44.1 µM | 30.5 µM | 32.4 µM |  |  |  |  | 
12 | O=C1/C(=C\c2cccc(Oc3ccccc3)c2)SC(c2ccccc2)N1c1cccc(Cl)c1 (centres undefined) | > 100 µM | > 100 µM | > 100 µM | > 100 µM |  |  | > 100 µM |  | > 100 µM |  | > 100 µM | > 100 µM | > 100 µM | > 100 µM |  |  |  |  | 
13 | OC1(C2(c3ccc(Cl)cc3)CCCC2)c2ccccc2C2=NCCN21 (centres undefined) | 31.3 µM | 32.6 µM | 31 µM | 24.1 µM |  |  | 29 µM |  | 25.1 µM |  | 28.2 µM | 24.4 µM | 28.8 µM | 9.51 µM |  |  |  |  | 
14 | COc1ccc(NC(=O)CC(=O)N2N=C(C)C(N=Nc3ccc(C(=O)O)cc3)C2=O)cc1 (centres undefined) | > 100 µM | > 100 µM | > 100 µM | > 100 µM |  |  | > 100 µM |  | > 100 µM |  | > 100 µM | > 100 µM | > 100 µM | > 100 µM |  |  |  |  | 
15 | CNC(=O)OCC1=C(COC(=O)NC)C(C)N(c2ccccc2)C1 (centres undefined) | > 100 µM | > 100 µM | > 100 µM | > 100 µM |  |  | > 100 µM |  | 41.6 µM |  | > 100 µM | > 100 µM | > 100 µM | > 100 µM |  |  |  |  | 
16 | CCCCN1CCC(O)(c2cc(C(=O)O)[nH]c2-c2cc(C)no2)C1=O (centres undefined) | > 100 µM | > 100 µM | > 100 µM | > 100 µM |  |  | > 100 µM |  | > 100 µM |  | > 100 µM | > 100 µM | > 100 µM | > 100 µM |  |  |  |  | 
17 | COc1ccc(NS(=O)(=O)c2ccc(N=C3C=C(Nc4ccc(S(=O)(=O)Nc5ccc(OC)nn5)cc4)C(=O)c4ccccc43)cc2)nn1 | 32.2 µM |  | 32.4 µM | 37.8 µM | 29.7 µM | > 100 µM | 31.5 µM | 66.7 µM | 35 µM | 31.8 µM | 33.2 µM | 32 µM | 50.4 µM | 32.8 µM | 57.9 µM |  |  |  | 
18 | COc1ccc(-c2nc(SC)n(C3OC(COC(C)=O)C(OC(C)=O)C(OC(C)=O)C3OC(C)=O)c(=O)c2C#N)cc1 (centres undefined) | > 100 µM | 52.7 µM and > 100 µM | > 100 µM | 77.6 µM and > 100 µM |  | 57.8 µM | > 100 µM |  | > 100 µM | > 100 µM | > 100 µM | > 100 µM | > 100 µM | 35.4 µM and > 100 µM | > 100 µM | 16.5 µM and > 100 µM | 24.4 µM and > 100 µM | 80.4 µM and 14.4 µM | 29.3 µM and > 100 µM
